PubChem BioAssay AID334 (DTP/NCI, 2004)
Several values for one entry are separate records, joined by “and”; a condition that tells them apart may be missing. Equal values may be shown once. Inconclusive results and toxic doses are left out.

Tested on: CD2F1 mice, intracerebral P388 leukemia, median survival T/C%
Experiment: NCI In Vivo Anticancer Drug Screen. Data for tumor model P388 Leukemia (intracerebral) in CD2F1 (CDF1) mice
Settings: endpoint: median survival time, higher = longer survival
Protocol: The antitumor activity of compounds was measured in mice bearing transplantable tumors. Survival or tumor size were measured and the results are expressed as the measurement made in the treated group (T) divided by the measurement made in the vehicle treated control group (C). The tumor model used in this assay is P388 Leukemia (intracerebral) in CD2F1 (CDF1) mice

[1] = dose: 50.0 mg/kg/injection, schedule: Q01DX009 (ip), vehicle: saline

Question: O=NN(CCCl)C(=O)NC1CCC(=O)NC1=O (stereo not drawn) was tested. Which T/C (dose: 3.0 mg/kg/injection, schedule: Q01DX009 (ip), vehicle: saline with Tween-80) did it give?
Answer: The T/C was 221 % of control.

Question: And the T/C (dose: 4.0 mg/kg/injection, schedule: Q01DX001 (ip), vehicle: saline)?
Answer: Its T/C is 114 % of control.

Question: And the T/C (dose: 4.0 mg/kg/injection, schedule: Q01DX009 (ip), vehicle: saline with Tween-80)?
Answer: The T/C was 242 % of control.

Question: What about the T/C (dose: 6.0 mg/kg/injection, schedule: Q01DX009 (ip), vehicle: saline with Tween-80) of the same compound?
Answer: Its T/C is 250 % of control.

Question: What about the T/C (dose: 8.0 mg/kg/injection, schedule: Q01DX001 (ip), vehicle: saline) of the same compound?
Answer: The T/C was 156 % of control.

Question: And the T/C (dose: 16.0 mg/kg/injection, schedule: Q01DX001 (ip), vehicle: saline)?
Answer: Its T/C is 212 % of control.

Question: And the T/C (dose: 32.0 mg/kg/injection, schedule: Q01DX001 (ip), vehicle: saline)?
Answer: Its T/C is 262 % of control.

Question: And the T/C (dose: 64.0 mg/kg/injection, schedule: Q01DX001 (ip), vehicle: saline)?
Answer: The T/C was 212 % of control.

Question: Which results are given for CCCCCc1cc(O)c2c(c1)OC(C)(C)[C@@H]1CCC(C)=C[C@@H]21?
Answer: T/C (dose: 2.75 mg/kg/injection, schedule: Q01DX005 (iv), vehicle: other): 105 % of control; T/C (dose: 5.5 mg/kg/injection, schedule: Q01DX005 (iv), vehicle: other): 101 % of control; T/C (dose: 11.0 mg/kg/injection, schedule: Q01DX005 (iv), vehicle: other): 103 % of control; T/C (dose: 22.0 mg/kg/injection, schedule: Q01DX005 (iv), vehicle: other): 104 % of control; T/C (dose: 44.0 mg/kg/injection, schedule: Q01DX005 (iv), vehicle: other): 101 % of control

Question: For CN(Cc1cnc2nc(N)nc(N)c2n1)c1ccc(C(=O)N[C@@H](CCC(=O)O)C(=O)O)cc1, which T/C (dose: 0.38 mg/kg/injection, schedule: Q01DX009 (ip), vehicle: olive oil, sesame oil, peanut oil) is on record?
Answer: The T/C was 110 % of control.

Question: And the T/C (dose: 0.38 mg/kg/injection, schedule: Q01DX009 (ip), vehicle: saline)?
Answer: Its T/C is 110 % of control.

Question: And the T/C (dose: 0.75 mg/kg/injection, schedule: Q01DX009 (ip), vehicle: sodium bicarbonate)?
Answer: Its T/C is 112 % of control.

Question: What about the T/C (dose: 0.75 mg/kg/injection, schedule: Q01DX009 (ip), vehicle: suspension in saline) of the same compound?
Answer: Its T/C is 123 % of control and 106 % of control.

Question: And the T/C (dose: 1.2 mg/kg/injection, schedule: Q04DX003 (ip), vehicle: saline)?
Answer: Its T/C is 105 % of control.

Question: What about the T/C (dose: 1.5 mg/kg/injection, schedule: Q01DX009 (ip), vehicle: sodium bicarbonate) of the same compound?
Answer: Its T/C is 112 % of control.

Question: And the T/C (dose: 1.5 mg/kg/injection, schedule: Q01DX009 (ip), vehicle: suspension in saline)?
Answer: The T/C was 96 % of control and 100 % of control.

Question: What about the T/C (dose: 2.3 mg/kg/injection, schedule: Q01DX009 (ip), vehicle: sodium bicarbonate) of the same compound?
Answer: Its T/C is 112 % of control.

Question: What about the T/C (dose: 2.3 mg/kg/injection, schedule: Q01DX009 (ip), vehicle: suspension in saline) of the same compound?
Answer: The T/C was 113 % of control and 103 % of control.

Question: What about the T/C (dose: 2.3 mg/kg/injection, schedule: Q04DX003 (ip), vehicle: saline) of the same compound?
Answer: Its T/C is 100 % of control.

Question: And the T/C (dose: 3.4 mg/kg/injection, schedule: Q01DX009 (ip), vehicle: sodium bicarbonate)?
Answer: The T/C was 116 % of control.

Question: What about the T/C (dose: 3.4 mg/kg/injection, schedule: Q01DX009 (ip), vehicle: suspension in saline) of the same compound?
Answer: Its T/C is 120 % of control and 122 % of control.

Question: What about the T/C (dose: 4.6 mg/kg/injection, schedule: Q04DX003 (ip), vehicle: saline) of the same compound?
Answer: The T/C was 110 % of control.

Question: What about the T/C (dose: 9.2 mg/kg/injection, schedule: Q04DX003 (ip), vehicle: saline) of the same compound?
Answer: Its T/C is 100 % of control.

Question: What about the T/C (dose: 18.4 mg/kg/injection, schedule: Q04DX003 (ip), vehicle: saline) of the same compound?
Answer: Its T/C is 115 % of control.

Question: What about the T/C (dose: 36.8 mg/kg/injection, schedule: Q04DX003 (ip), vehicle: saline) of the same compound?
Answer: The T/C was 95 % of control.

Question: CC1(C)N=C(N)N=C(N)N1c1ccc(OCC(=O)Nc2ccc(S(=O)(=O)F)cc2)c(Cl)c1 was tested. Which T/C (dose: 50.0 mg/kg/injection, schedule: Q04DX003 (ip), vehicle: saline) did it give?
Answer: The T/C was 111 % of control.

Question: And the T/C (dose: 100.0 mg/kg/injection, schedule: Q04DX003 (ip), vehicle: saline)?
Answer: The T/C was 100 % of control.

Question: What about the T/C (dose: 200.0 mg/kg/injection, schedule: Q04DX003 (ip), vehicle: saline) of the same compound?
Answer: Its T/C is 111 % of control.

Question: How did the T/C (dose: 1.0 mg/kg/injection, schedule: Q01DX009 (ip), vehicle: saline) turn out when Nc1ccc2nc3ccc(N)cc3[n+](-c3ccccc3)c2c1 was run?
Answer: The T/C was 89 % of control.

Question: And the T/C (dose: 2.0 mg/kg/injection, schedule: Q01DX009 (ip), vehicle: saline)?
Answer: Its T/C is 87 % of control.

Question: And the T/C (dose: 4.0 mg/kg/injection, schedule: Q01DX009 (ip), vehicle: saline)?
Answer: Its T/C is 99 % of control.

Question: What about the T/C (dose: 8.0 mg/kg/injection, schedule: Q01DX009 (ip), vehicle: saline) of the same compound?
Answer: Its T/C is 99 % of control.

Question: Which T/C (dose: 12.5 mg/kg/injection, schedule: Q01DX009 (ip), vehicle: saline) does the source give for Nc1ncn(C2OC(CO)C(O)C2O)c(=O)n1 (stereo not drawn) here?
Answer: The T/C was 219 % of control.

Question: And the T/C (dose: 25.0 mg/kg/injection, schedule: Q01DX009 (ip), vehicle: saline)?
Answer: Its T/C is 230 % of control.

Question: What about the T/C [1] of the same compound?
Answer: The T/C was 290 % of control.

Question: And the T/C (dose: 100.0 mg/kg/injection, schedule: Q01DX009 (ip), vehicle: saline)?
Answer: Its T/C is 303 % of control.

Question: What about the T/C (dose: 200.0 mg/kg/injection, schedule: Q01DX009 (ip), vehicle: saline) of the same compound?
Answer: Its T/C is 303 % of control.

Question: Nc1ncnc2c1ncn2C1OC(COP(=O)(O)O)C(O)C1O (stereo not drawn) was tested. Which T/C [1] did it give?
Answer: The T/C was 97 % of control.

Question: And the T/C (dose: 1600.0 mg/kg/injection, schedule: Q01DX009 (ip), vehicle: saline)?
Answer: Its T/C is 100 % of control and 104 % of control.
